From US12077503B2, “Substituted cyclic amides and their use as herbicides” (FMC CORPORATION, priority 2015, dated 2024)

How the values were obtained:
Type in all cases: in vivo
[1] = system: corn (Zea mays); test: Test G Post-Emergence Protocol; settings: Zea mays, post-emergence, 312 h; for plant injury at 15.625 g/ha: 15.625 g ai/ha, evaluated after 13 days (100=total damage to plant; 0=no damage to plant), read-out: Corn damage rating; for plant injury at 62.5 g/ha: 62.5 g ai/ha, read-out: Corn damage rating (100=total damage to plant; 0=no damage to plant); for plant injury at 62.5 g/ha / plant injury at 250 g/ha: evaluated after 13 days; for plant injury at 250 g/ha: 250 g ai/ha, read-out: damage to plant, Corn (100=total damage to plant; 0=no damage to plant)
How it was run: (§1)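 Damage was rated 13 days after treatment from 0 (none) to 100 (plant killed). Compound was applied as a spray at 15.625, 62.5 or 250 g/ha in 50:50 acetone/water containing 0.5% Tween 20, onto 8-day-old potted plants kept in a glasshouse (24/16 °C, 14 h light, 65% humidity).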

[2] = system: barnyardgrass (Echinochloa crus-galli); test: Test G Post-Emergence Protocol; settings: Echinochloa crus-galli, post-emergence, 312 h; for pest or weed control at 15.625 g/ha: 15.625 g ai/ha, evaluated after 13 days (100=total damage to plant; 0=no damage to plant), read-out: Barnyardgrass damage rating; for pest or weed control at 62.5 g/ha: 62.5 g ai/ha, read-out: Barnyardgrass damage rating (100=total damage to plant; 0=no damage to plant); for pest or weed control at 62.5 g/ha / pest or weed control at 250 g/ha: evaluated after 13 days; for pest or weed control at 250 g/ha: 250 g ai/ha, read-out: damage to plant, Barnyardgrass (100=total damage to plant; 0=no damage to plant)
How it was run: as §1

[3] = system: giant foxtail (Setaria faberi); test: Test G Post-Emergence Protocol; settings: Setaria faberi, post-emergence, 312 h; for pest or weed control at 15.625 g/ha: 15.625 g ai/ha, evaluated after 13 days (100=total damage to plant; 0=no damage to plant), read-out: Foxtail, Giant damage rating; for pest or weed control at 62.5 g/ha: 62.5 g ai/ha, read-out: Foxtail, Giant damage rating (100=total damage to plant; 0=no damage to plant); for pest or weed control at 62.5 g/ha / pest or weed control at 250 g/ha: evaluated after 13 days; for pest or weed control at 250 g/ha: 250 g ai/ha, read-out: damage to plant, Foxtail, Giant (100=total damage to plant; 0=no damage to plant)
How it was run: as §1

[4] = system: velvetleaf (Abutilon theophrasti); test: Test G Post-Emergence Protocol; settings: Abutilon theophrasti, post-emergence, 312 h; for pest or weed control at 15.625 g/ha: 15.625 g ai/ha, evaluated after 13 days (100=total damage to plant; 0=no damage to plant), read-out: Velvetleaf damage rating; for pest or weed control at 62.5 g/ha: 62.5 g ai/ha, read-out: Velvetleaf damage rating (100=total damage to plant; 0=no damage to plant); for pest or weed control at 62.5 g/ha / pest or weed control at 250 g/ha: evaluated after 13 days; for pest or weed control at 250 g/ha: 250 g ai/ha, read-out: damage to plant, Velvetleaf (100=total damage to plant; 0=no damage to plant)
How it was run: as §1

[5] = system: redroot pigweed (Amaranthus retroflexus); test: Test G Post-Emergence Protocol; settings: Amaranthus retroflexus, post-emergence, 312 h; for pest or weed control at 15.625 g/ha: 15.625 g ai/ha, evaluated after 13 days (100=total damage to plant; 0=no damage to plant), read-out: Pigweed, Redroot damage rating; for pest or weed control at 62.5 g/ha: 62.5 g ai/ha, read-out: Pigweed, Redroot damage rating (100=total damage to plant; 0=no damage to plant); for pest or weed control at 62.5 g/ha / pest or weed control at 250 g/ha: evaluated after 13 days; for pest or weed control at 250 g/ha: 250 g ai/ha, read-out: damage to plant, Pigweed, Redroot (100=total damage to plant; 0=no damage to plant)
How it was run: as §1

[6] = system: ivy-leaved morning glory (Ipomoea hederacea); test: Test G Post-Emergence Protocol; settings: Ipomoea, post-emergence, 312 h; for pest or weed control at 15.625 g/ha: 15.625 g ai/ha, evaluated after 13 days (100=total damage to plant; 0=no damage to plant), read-out: Morningglory, Ivy-leaved damage rating; for pest or weed control at 62.5 g/ha: 62.5 g ai/ha, read-out: Morningglory, Ivy-leaved damage rating (100=total damage to plant; 0=no damage to plant); for pest or weed control at 62.5 g/ha / pest or weed control at 250 g/ha: evaluated after 13 days; for pest or weed control at 250 g/ha: 250 g ai/ha, read-out: damage to plant, Morningglory, Ivy-leaved (100=total damage to plant; 0=no damage to plant)
How it was run: as §1

[7] = system: corn (Zea mays); test: Test G Pre-Emergence Protocol; settings: Zea mays, pre-emergence, 312 h, evaluated after 13 days; for plant injury at 15.625 g/ha: 15.625 g ai/ha; for plant injury at 15.625 g/ha / plant injury at 250 g/ha: read-out: Corn damage rating (100=total damage to plant; 0=no damage to plant); for plant injury at 62.5 g/ha: 62.5 g ai/ha, 100=total damage to plant, 0=no damage to plant, read-out: plant damage rating, Corn; for plant injury at 250 g/ha: 250 g ai/ha
How it was run: (§2)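 Spraying took place one day after sowing, at 15.625, 62.5 or 250 g/ha, using an acetone/water (50:50) spray solution containing 0.5% Tween 20. Plants were kept under glasshouse conditions (24/16 °C, 14 h light, 65% humidity, watered twice daily), and injury was rated 0–100 at day 13.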

[8] = system: barnyardgrass (Echinochloa crus-galli); test: Test G Pre-Emergence Protocol; settings: Echinochloa crus-galli, pre-emergence, 312 h, evaluated after 13 days; for pest or weed control at 15.625 g/ha: 15.625 g ai/ha, read-out: Barnyard grass damage rating (100=total damage to plant; 0=no damage to plant); for pest or weed control at 62.5 g/ha: 62.5 g ai/ha, 100=total damage to plant, 0=no damage to plant, read-out: plant damage rating, Barnyardgrass; for pest or weed control at 250 g/ha: 250 g ai/ha, read-out: Barnyardgrass damage rating (100=total damage to plant; 0=no damage to plant)
How it was run: as §2

[9] = system: giant foxtail (Setaria faberi); test: Test G Pre-Emergence Protocol; settings: Setaria faberi, pre-emergence, 312 h, evaluated after 13 days; for pest or weed control at 15.625 g/ha: 15.625 g ai/ha; for pest or weed control at 15.625 g/ha / pest or weed control at 250 g/ha: read-out: Foxtail, Giant damage rating (100=total damage to plant; 0=no damage to plant); for pest or weed control at 62.5 g/ha: 62.5 g ai/ha, 100=total damage to plant, 0=no damage to plant, read-out: plant damage rating, Foxtail, Giant; for pest or weed control at 250 g/ha: 250 g ai/ha
How it was run: as §2

[10] = system: velvetleaf (Abutilon theophrasti); test: Test G Pre-Emergence Protocol; settings: Abutilon theophrasti, pre-emergence, 312 h, evaluated after 13 days; for pest or weed control at 15.625 g/ha: 15.625 g ai/ha; for pest or weed control at 15.625 g/ha / pest or weed control at 250 g/ha: read-out: Velvetleaf damage rating (100=total damage to plant; 0=no damage to plant); for pest or weed control at 62.5 g/ha: 62.5 g ai/ha, 100=total damage to plant, 0=no damage to plant, read-out: plant damage rating, Velvetleaf; for pest or weed control at 250 g/ha: 250 g ai/ha
How it was run: as §2

[11] = system: redroot pigweed (Amaranthus retroflexus); test: Test G Pre-Emergence Protocol; settings: Amaranthus retroflexus, pre-emergence, 312 h, evaluated after 13 days; for pest or weed control at 15.625 g/ha: 15.625 g ai/ha; for pest or weed control at 15.625 g/ha / pest or weed control at 250 g/ha: read-out: Pigweed, Redroot damage rating (100=total damage to plant; 0=no damage to plant); for pest or weed control at 62.5 g/ha: 62.5 g ai/ha, 100=total damage to plant, 0=no damage to plant, read-out: plant damage rating, Pigweed, Redroot; for pest or weed control at 250 g/ha: 250 g ai/ha
How it was run: as §2

[12] = system: ivy-leaved morning glory (Ipomoea hederacea); test: Test G Pre-Emergence Protocol; settings: Ipomoea, pre-emergence, 312 h, evaluated after 13 days; for pest or weed control at 15.625 g/ha: 15.625 g ai/ha, read-out: Morning-glory, Ivy-leaved damage rating (100=total damage to plant; 0=no damage to plant); for pest or weed control at 62.5 g/ha: 62.5 g ai/ha, 100=total damage to plant, 0=no damage to plant, read-out: plant damage rating, Morningglory, Ivy-leaved; for pest or weed control at 250 g/ha: 250 g ai/ha, read-out: Morningglory, Ivy-leaved damage rating (100=total damage to plant; 0=no damage to plant)
How it was run: as §2

CN1C[C@@H](c2ccc(C(F)(F)F)cc2)[C@H](C(=O)Nc2nccc(=O)[nH]2)C1=O (racemic) [Compound 1622]
0%: plant injury at 15.625 g/ha [1] | plant injury at 62.5 g/ha [1] | plant injury at 250 g/ha [1] | pest or weed control at 15.625 g/ha [2] | pest or weed control at 62.5 g/ha [2] | pest or weed control at 250 g/ha [2] | pest or weed control at 15.625 g/ha [3] | pest or weed control at 62.5 g/ha [3] | pest or weed control at 250 g/ha [3] | pest or weed control at 15.625 g/ha [4] | pest or weed control at 62.5 g/ha [4] | pest or weed control at 250 g/ha [4] | pest or weed control at 15.625 g/ha [5] | pest or weed control at 62.5 g/ha [5] | pest or weed control at 250 g/ha [5] | pest or weed control at 15.625 g/ha [6] | pest or weed control at 62.5 g/ha [6] | pest or weed control at 250 g/ha [6] | plant injury at 15.625 g/ha [7] | plant injury at 62.5 g/ha [7] | plant injury at 250 g/ha [7] | pest or weed control at 15.625 g/ha [8] | pest or weed control at 62.5 g/ha [8] | pest or weed control at 250 g/ha [8] | pest or weed control at 15.625 g/ha [9] | pest or weed control at 62.5 g/ha [9] | pest or weed control at 250 g/ha [9] | pest or weed control at 15.625 g/ha [10] | pest or weed control at 62.5 g/ha [10] | pest or weed control at 250 g/ha [10] | pest or weed control at 15.625 g/ha [11] | pest or weed control at 62.5 g/ha [11] | pest or weed control at 250 g/ha [11] | pest or weed control at 15.625 g/ha [12] | pest or weed control at 62.5 g/ha [12] | pest or weed control at 250 g/ha [12]

CN1C[C@H](c2ccc(C(F)(F)F)cc2)[C@@H](C(=O)NC2=NOC(C)(C)C2)C1=O (racemic) [Compound 1427]
0%: plant injury at 15.625 g/ha [1] | plant injury at 62.5 g/ha [1] | plant injury at 250 g/ha [1] | pest or weed control at 15.625 g/ha [2] | pest or weed control at 62.5 g/ha [2] | pest or weed control at 250 g/ha [2] | pest or weed control at 15.625 g/ha [3] | pest or weed control at 62.5 g/ha [3] | pest or weed control at 250 g/ha [3] | pest or weed control at 15.625 g/ha [4] | pest or weed control at 62.5 g/ha [4] | pest or weed control at 250 g/ha [4] | pest or weed control at 15.625 g/ha [5] | pest or weed control at 62.5 g/ha [5] | pest or weed control at 250 g/ha [5] | pest or weed control at 15.625 g/ha [6] | pest or weed control at 62.5 g/ha [6] | pest or weed control at 250 g/ha [6] | plant injury at 15.625 g/ha [7] | plant injury at 62.5 g/ha [7] | plant injury at 250 g/ha [7] | pest or weed control at 15.625 g/ha [8] | pest or weed control at 62.5 g/ha [8] | pest or weed control at 250 g/ha [8] | pest or weed control at 15.625 g/ha [9] | pest or weed control at 62.5 g/ha [9] | pest or weed control at 250 g/ha [9] | pest or weed control at 15.625 g/ha [10] | pest or weed control at 62.5 g/ha [10] | pest or weed control at 250 g/ha [10] | pest or weed control at 15.625 g/ha [11] | pest or weed control at 62.5 g/ha [11] | pest or weed control at 250 g/ha [11] | pest or weed control at 15.625 g/ha [12] | pest or weed control at 62.5 g/ha [12] | pest or weed control at 250 g/ha [12]
